According to patent US11266146B2, “Microbiocidal quinoline (thio)carboxamide derivatives” (SYNGENTA PARTICIPATIONS AG, priority 2017, dated 2022):

Legend:
[1] = tested on: Botryotinia fuckeliana (Botrytis cinerea); experiment: Botryotinia fuckeliana (Botrytis cinerea) / liquid culture (Gray mould); format: cell-based; conditions: growth inhibition photometrically 3-4 days after application, vs untreated control
Fusarium culmorum [2] = experiment: microbe, parasite or virus in culture; format: cell-based; conditions: read-out: control of Fusarium culmorum
Fusarium culmorum [3] = experiment: whole plant or invertebrate; format: in vivo; conditions: in Triticum aestivum, 144 h, read-out: control of Fusarium culmorum
[4] = tested on: Glomerella lagenarium (Colletotrichum lagenarium); experiment: Glomerella lagenarium (Colletotrichum lagenarium) / liquid culture (Anthracnose); format: cell-based; conditions: Colletotrichum orbiculare, growth inhibition photometrically 3-4 days after application, vs untreated control
[5] = tested on: Magnaporthe grisea (Pyricularia oryzae); experiment: microbe, parasite or virus in culture; format: cell-based; conditions: read-out: control of Magnaporthe grisea
[6] = tested on: Monographella nivalis (Microdochium nivale); experiment: Monographella nivalis (Microdochium nivale) / liquid culture (foot rot cereals); format: cell-based; conditions: growth inhibition photometrically 4-5 days after application, vs untreated control

| SMILES | inhibition of growth at 20 ppm [1] [%] | inhibition of growth at 20 ppm (Fusarium culmorum [2]) [%] | pest or weed control at 200 ppm (Fusarium culmorum [3]) [%] | inhibition of growth at 20 ppm [4] [%] | inhibition of growth at 20 ppm [5] [%] | melting point [°C] | inhibition of growth at 20 ppm [6] [%] |
| --- | --- | --- | --- | --- | --- | --- | --- |
| CC(CC1CCOCC1)(CC(F)(F)F)NC(=O)c1cnc2ccccc2c1 (stereo not shown) [E31] | ≥ 80 | – | – | – | – | – | – |
| CC(C)CC(C)(Cc1cccs1)NC(=O)c1cnc2c(F)cccc2c1 (stereo not shown) [E12] | ≥ 80 | ≥ 80 | ≥ 80 | ≥ 80 | ≥ 80 | – | – |
| CC(CC1CCCOC1)(CC(F)(F)F)NC(=O)c1cnc2ccccc2c1 (stereo not shown) [E36] | ≥ 80 | ≥ 80 | – | ≥ 80 | – | 81 to 84 | – |
| CON1CCC(CC(C)(CC(F)(F)F)NC(=O)c2cnc3ccccc3c2)CC1 (stereo not shown) [E26] | ≥ 80 | ≥ 80 | ≥ 80 | ≥ 80 | ≥ 80 | – | – |
| CON1CCC(CC(C)(CC(F)(F)F)NC(=O)c2cnc3c(F)cccc3c2)CC1 (stereo not shown) [E28] | ≥ 80 | ≥ 80 | – | ≥ 80 | – | 76 to 86 | – |
| CC(C)CC(C)(CN1CCSCC1)NC(=O)c1cnc2c(F)cccc2c1 (stereo not shown) [E7] | ≥ 80 | ≥ 80 | – | – | ≥ 80 | – | – |
| Cc1cccc2cc(C(=O)NC(C)(CC3CCOCC3)CC(F)(F)F)cnc12 (stereo not shown) [E32] | ≥ 80 | ≥ 80 | – | ≥ 80 | ≥ 80 | – | – |
| CC(C)CC(C)(CN1CCCCO1)NC(=O)c1cnc2c(F)cccc2c1 (stereo not shown) [E6] | ≥ 80 | ≥ 80 | ≥ 80 | ≥ 80 | ≥ 80 | – | ≥ 80 |
| CC1=NN(CC(C)(CC(C)C)NC(=O)c2cnc3c(F)cccc3c2)CCC1 (stereo not shown) [E23] | ≥ 80 | ≥ 80 | – | ≥ 80 | – | – | ≥ 80 |
| CC(C)CC(C)(CN1CCC(F)(F)CC1)NC(=O)c1cnc2c(F)cccc2c1 (stereo not shown) [E5] | ≥ 80 | ≥ 80 | – | ≥ 80 | ≥ 80 | – | – |
| CC(Cc1cccc(F)n1)(CC(F)(F)F)NC(=O)c1cnc2c(F)cccc2c1 (stereo not shown) [E34] | ≥ 80 | ≥ 80 | ≥ 80 | ≥ 80 | ≥ 80 | – | – |
| CC(Cc1ccc(F)nc1)(CC(F)(F)F)NC(=O)c1cnc2c(F)cccc2c1 (stereo not shown) [E29] | ≥ 80 | ≥ 80 | – | ≥ 80 | – | 70 to 74 | – |
| Cc1noc(CC(C)(CC(C)(C)C)NC(=O)c2cnc3c(F)cccc3c2)n1 (stereo not shown) [E2] | ≥ 80 | ≥ 80 | – | ≥ 80 | ≥ 80 | – | – |
| Cc1c2ccccc2nn1CC(C)(CC(C)C)NC(=O)c1cnc2c(F)cccc2c1 (stereo not shown) [E17] | ≥ 80 | ≥ 80 | – | – | – | – | ≥ 80 |
| Cc1nn(CC(C)(CC(C)C)NC(=O)c2cnc3c(F)cccc3c2)c(C)c1C (stereo not shown) [E20] | ≥ 80 | ≥ 80 | – | ≥ 80 | – | 140 to 144 | ≥ 80 |
| Cc1cc(C(F)(F)F)nn1CC(C)(CC(C)C)NC(=O)c1cnc2c(F)cccc2c1 (stereo not shown) [E16] | – | – | – | – | ≥ 80 | 140 to 144 | – |
| CC(Cc1cccc(F)n1)(CC(F)(F)F)NC(=O)c1cnc2ccccc2c1 (stereo not shown) [E35] | ≥ 80 | ≥ 80 | ≥ 80 | ≥ 80 | – | 109 to 111 | – |
| CC(CC1CCOCC1)(CC(F)(F)F)NC(=O)c1cnc2c(F)cccc2c1 (stereo not shown) [E25] | ≥ 80 | ≥ 80 | – | ≥ 80 | – | 150 to 151 | – |
| Cc1ccc(CC(C)(CC(C)C)NC(=O)c2cnc3c(F)cccc3c2)s1 (stereo not shown) [E13] | ≥ 80 | ≥ 80 | – | ≥ 80 | ≥ 80 | – | – |

| SMILES | inhibition of growth at 20 ppm [1] [%] | inhibition of growth at 20 ppm (Fusarium culmorum [2]) [%] | pest or weed control at 200 ppm (Fusarium culmorum [3]) [%] | inhibition of growth at 20 ppm [4] [%] | inhibition of growth at 20 ppm [5] [%] | melting point [°C] | inhibition of growth at 20 ppm [6] [%] |
| --- | --- | --- | --- | --- | --- | --- | --- |
| Cc1cc(C)n(CC(C)(CC(C)C)NC(=O)c2cnc3c(F)cccc3c2)n1 (stereo not shown) [E21] | ≥ 80 | ≥ 80 | – | ≥ 80 | ≥ 80 | – | ≥ 80 |
| Cc1cnc(CC(C)(CC(C)(C)C)NC(=O)c2cnc3c(F)cccc3c2)o1 (stereo not shown) [E1] | ≥ 80 | ≥ 80 | – | ≥ 80 | – | – | ≥ 80 |
| CC(C)CC(C)(Cc1cnc(Cl)s1)NC(=O)c1cnc2c(F)cccc2c1 (stereo not shown) [E9] | ≥ 80 | ≥ 80 | ≥ 80 | – | ≥ 80 | 171 to 173 | – |
| Cc1ncc(CC(C)(CC(C)C)NC(=O)c2cnc3c(F)cccc3c2)s1 (stereo not shown) [E8] | ≥ 80 | ≥ 80 | – | ≥ 80 | ≥ 80 | 146 to 150 | – |
| CC(C)CC(C)(CN1CCCC(F)(F)C1)NC(=O)c1cnc2c(F)cccc2c1 (stereo not shown) [E3] | ≥ 80 | ≥ 80 | ≥ 80 | ≥ 80 | ≥ 80 | – | – |
| Cc1cccc2cc(C(=O)NC(C)(CC3CCCOC3)CC(F)(F)F)cnc12 (stereo not shown) [E37] | ≥ 80 | ≥ 80 | – | ≥ 80 | ≥ 80 | – | ≥ 80 |
| CC(C)(C)CC(C)(Cc1ncco1)NC(=O)c1cnc2c(F)cccc2c1 (stereo not shown) [E11] | ≥ 80 | ≥ 80 | – | ≥ 80 | – | – | – |
| Cc1cc(C(F)(F)F)n(CC(C)(CC(C)C)NC(=O)c2cnc3c(F)cccc3c2)n1 (stereo not shown) [E15] | – | ≥ 80 | ≥ 80 | ≥ 80 | ≥ 80 | – | – |
| CC(Cc1ccnc(F)c1)(CC(F)(F)F)NC(=O)c1cnc2c(F)cccc2c1 (stereo not shown) [E30] | ≥ 80 | ≥ 80 | ≥ 80 | – | ≥ 80 | 136 to 142 | – |
| CON1CCC(CC(C)(CC(F)(F)F)NC(=O)c2cnc3c(C)cccc3c2)CC1 (stereo not shown) [E27] | ≥ 80 | ≥ 80 | – | ≥ 80 | ≥ 80 | – | – |
| CC(CC1CCCOC1)(CC(F)(F)F)NC(=O)c1cnc2c(F)cccc2c1 (stereo not shown) [E38] | ≥ 80 | ≥ 80 | – | ≥ 80 | ≥ 80 | 85 to 88 | ≥ 80 |
| Cc1nn(CC(C)(CC(C)C)NC(=O)c2cnc3c(F)cccc3c2)c2ccccc12 (stereo not shown) [E18] | ≥ 80 | ≥ 80 | – | ≥ 80 | – | – | – |
| CC(C)CC(C)(CN1CCC(=C(F)F)CC1)NC(=O)c1cnc2c(F)cccc2c1 (stereo not shown) [E4] | ≥ 80 | ≥ 80 | – | ≥ 80 | ≥ 80 | – | – |
| CC(C)CC(C)(Cc1ccc(Cl)s1)NC(=O)c1cnc2c(F)cccc2c1 (stereo not shown) [E14, N-[1-[(5-chloro-2-thienyl)methyl]-1,3-dimethyl-butyl]-8-fluoro-quinoline-3-carboxamide] | ≥ 80 | ≥ 80 | ≥ 80 | ≥ 80 | ≥ 80 | 126 to 128 | ≥ 80 |
| CC(C)C[C@@](C)(CN1CCCC(F)(F)C1)NC(=O)c1cnc2c(F)cccc2c1 (single isomer, unassigned) [F2] | ≥ 80 | ≥ 80 | ≥ 80 | ≥ 80 | ≥ 80 | – | ≥ 80 |
| Cc1cccc2cc(C(=O)NC(C)(Cc3cccc(F)n3)CC(F)(F)F)cnc12 (stereo not shown) [E33] | ≥ 80 | ≥ 80 | ≥ 80 | ≥ 80 | ≥ 80 | – | ≥ 80 |
| Cc1nn(CC(C)(CC(C)C)NC(=O)c2cnc3c(F)cccc3c2)c(C)c1Cl (stereo not shown) [E19] | ≥ 80 | ≥ 80 | – | ≥ 80 | – | 134 to 138 | ≥ 80 |
| CC(C)CC(C)(CN1CCCC=N1)NC(=O)c1cnc2c(F)cccc2c1 (stereo not shown) [E24] | ≥ 80 | – | ≥ 80 | ≥ 80 | – | – | ≥ 80 |
| CC(C)C[C@](C)(CN1CCCC(F)(F)C1)NC(=O)c1cnc2c(F)cccc2c1 (single isomer, unassigned) [F1] | ≥ 80 | ≥ 80 | – | ≥ 80 | ≥ 80 | – | – |
